In patent publication US8835615B2, “2′-fluorine-4′-substituted-nucleoside analogues, preparation methods and uses thereof” (priority 2007, dated 2014):
pIC50: −log10 of the molar value. In brackets after ≈: the same amount, converted by molar mass. Like-named read-outs stand apart in the source and are kept apart here.

Key:
[1] = tested on: HIV-1 IIIB; assay: Anti-HIV-1 activity in MT-4 cell culture (P24 antigen); assay type: cell-based
[2] = Solubility of the drugs to be tested; assay type: physicochemical
Description: During the test, the solution was dissolved by DMSO to suitable concentration, diluted by culture medium, and immediately added into cell culture.

[3] = tested on: Hep G2.2.15; assay: Cytotoxicity on Hep G2.2.15 (MTT); assay type: cell-based, human; details: for Cell Survival Rate: MTT
[4] = tested on: VSVG/HIV-luc; assay: Pharmacological model of wild type HIV-1 replication (VSVG/HIV-luc, Cell 293); assay type: cell-based
[5] = tested on: HBV DNA; assay: HBV DNA in Hep G2.2.15 cell supernatant, fluorescent quantitative PCR; assay type: cell-based, hepatitis B virus; details: for HBV DNA copy number / Inhibition ratio (%): cell supernatant
[6] = Cytotoxicity in MT-4 cells, MTT method; details: human
[7] = tested on: HCV; assay: Anti-HCV activity, HCV-RNA by automatic PCR ELISA; assay type: cell-based
Description: The HCV replication cells (Avva.5) were cultivated in the Dulbecco's improved Eagle medium containing 10% fetal calf serum and 1 mg/ml G418. 293-Sip-L cells were cultivated in the Dulbecco's improved Eagle medium containing 10% fetal calf serum, 250 μg/ml G418 and 150 μg/ml hygromycin B.
Using Petri culture dish in a diameter of 60 mm, the cells were cultivated in a positive culture medium containing 100 μl of HCV for 12 hours. Then, the cells were cultivated in the fresh medium containing on HCV and the medium was replaced once everyday. When detecting HCV-RNA 7 days after the cells have been infected with HCV, it is necessary to clean the cells using the Dulbecco's improved Eagle medium in trypsinization and centrifugation methods. The upper layer part cleaned for the second time (used for comparison) and the washed cells were collected for RNA extraction and RT-PCR detection. β-actin mRNA was simultaneously determined for the purpose of comparison.
The quantitative determination on HCV-RNA is performed in automatic PCR Enzyme-linked immunosorbent assay (ELISA). (Edition 2.0, Roche Diagnostics, Branchburg, N.J.)
HCV-NA level was determined in automatic PCR ELISA.

[8] = Human immunodeficiency virus 1, IIIB, MT4, 96 h
[9] = MT-4 cells infected with HIV-1 IIIB
[10] = Human immunodeficiency virus 1, MT4, 96 h, HIV-1 IIIB in MT-4 cell culture, 4 days, read-out: IC50
[11] = Human immunodeficiency virus 1, VSVG/HIV-luc, Cell 293, read-out: Remarks IC50
[12] = 0.06 μg/ml in the cell supernatant
[13] = 0.6 μg/ml in the cell supernatant
[14] = 6 μg/ml in the cell supernatant

Structure (SMILES) | Solubility in DMSO [2] | Solubility in water [2] | CC50 at 4 days [6, 9] | CC50 at 4 days ([6]; uninfected MT-4 cells) | IC50 [1, 10] | other results
[N-]=[N+]=NC1(CO)OC(n2ccc(N)nc2=O)C(F)C1O (stereo not shown) [Compound 15] | DMSO-soluble | water-insoluble | > 100 µg/mL | > 100 µg/mL | – | IC50 [1, 8]: 0.01 ng/mL (≈ 3.49e-05 µM); Cell Survival Rate ([3]; 8 μg/ml): 98.7%; Cell Survival Rate ([3]; 40 μg/ml): 96.7%; Cell Survival Rate ([3]; 200 μg/ml): 85.5%; Cell Survival Rate ([3]; 1000 μg/ml): 82.6%; Toxicity (in words) ([3]; in vitro tests): less toxicity; pIC50 ([4]; Human immunodeficiency virus 1, read-out: Remarks IC50): 8.82; HBV DNA copy number ([5]; 0.016 μg/L): 18.9 *10^5; Inhibition ratio (%) ([5]; 0.016 μg/L): 41.0%; HBV DNA copy number ([5]; 0.08 μg/L): 13.5 *10^5; Inhibition ratio (%) ([5]; 0.08 μg/L): 57.8%; HBV DNA copy number ([5]; 0.4 μg/L): 10.3 *10^5; Inhibition ratio (%) ([5]; 0.4 μg/L): 67.8%; HBV DNA copy number ([5]; 2 μg/L): 5.21 *10^5; Inhibition ratio (%) ([5]; 2 μg/L): 83.7%; EC50 ([5]; Hepatitis B virus, HepG2.2.15, HBV DNA in Hep G2.2.15 supernatant): 0.00019 µg/mL (≈ 0.000664 µM); Effect on HBV DNA copy number (in words) ([5]; after administration, in vitro): significantly reduce
[N-]=[N+]=NC1(CO)OC(n2cc(F)c3c(N)ncnc32)C(F)C1O (stereo not shown) [Compound 50] | DMSO-soluble | water-insoluble | 28.3 µg/mL (≈ 86.5 µM) | 27.9 µg/mL (≈ 85.3 µM) | 2300 ng/mL (≈ 7.03 µM) | –
CC1(CO)OC(n2cnc3c(O)ncnc32)C(F)C1O (stereo not shown) [Compound 36] | DMSO-soluble | water-insoluble | 35.1 µg/mL (≈ 124 µM) | 37.5 µg/mL (≈ 132 µM) | 127 ng/mL (≈ 0.447 µM) | –
Cc1ccnc2c1NC(=O)c1cccnc1N2C1CC1 [NVP, Nevirapine, reference compound] | – | – | > 12.5 µg/mL | > 12.5 µg/mL | 3.64 ng/mL (≈ 0.0137 µM) | –
C#CC1(CO)OC(n2ccc(N)nc2=O)C(F)C1O (stereo not shown) [Compound 1] | DMSO-soluble | water-insoluble | 43.6 µg/mL (≈ 162 µM) | 40.9 µg/mL (≈ 152 µM) | 101 ng/mL (≈ 0.375 µM) | pIC50 [4, 11]: 6.30
N#CC1(CO)OC(n2cc(F)c3c(O)ncnc32)C(F)C1O (stereo not shown) [Compound 46] | DMSO-soluble | water-insoluble | 48.5 µg/mL (≈ 155 µM) | 55.4 µg/mL (≈ 177 µM) | 131 ng/mL (≈ 0.42 µM) | –
Cc1cn([C@H]2C[C@H](N=[N+]=[N-])[C@@H](CO)O2)c(=O)[nH]c1=O [AZT, Zidovudine, reference compound] | – | – | > 0.625 µg/mL | > 0.625 µg/mL | 0.182 ng/mL (≈ 0.000681 µM) | –
N#CC1(CO)OC(n2cnc3c(N)ncnc32)C(F)C1O (stereo not shown) [Compound 39] | DMSO-soluble | water-insoluble | 38.3 µg/mL (≈ 130 µM) | 36.8 µg/mL (≈ 125 µM) | 1490 ng/mL (≈ 5.06 µM) | –
[N-]=[N+]=NC1(CO)OC(n2ccc(O)nc2=O)C(F)C1O (stereo not shown) [Compound 17] | – | – | – | – | – | Inhibition effect Test 1 (HCV-RNA level) [7, 12]: 4.9 × 10^2; Inhibition effect Test 2 (HCV-RNA level) [7, 12]: 4.1 × 10^2; Inhibition effect Test 1 (HCV-RNA level) [7, 13]: 0.92 × 10^2; Inhibition effect Test 2 (HCV-RNA level) [7, 13]: 0.78 × 10^2; Inhibition effect Test 1 (HCV-RNA level) [7, 14]: 1.1 × 10^2; Inhibition effect Test 2 (HCV-RNA level) [7, 14]: 0.81 × 10^2; Inhibition effect on HCV (in words) ([7]; 6 μg/ml, 0.6 μg/ml or 0.06 μg/ml): relatively strong inhibition effect; HBV DNA copy number ([5]; 100 μg/L): 19.2 *10^5; Inhibition ratio (%) ([5]; 100 μg/L): 40.6%; HBV DNA copy number ([5]; 500 μg/L): 14.3 *10^5; Inhibition ratio (%) ([5]; 500 μg/L): 52.2%; HBV DNA copy number ([5]; 1000 μg/L): 10.2 *10^5; Inhibition ratio (%) ([5]; 1000 μg/L): 67.9%
C#CC1(CO)OC(n2cc(F)c3c(N)ncnc32)C(F)C1O (stereo not shown) [Compound 52] | DMSO-soluble | water-insoluble | 41.3 µg/mL (≈ 133 µM) | 38.6 µg/mL (≈ 124 µM) | 133 ng/mL (≈ 0.429 µM) | –
C#CC1(CO)OC(n2cnc3c(F)ncnc32)C(F)C1O (stereo not shown) [Compound 19] | DMSO-soluble | water-insoluble | 43.8 µg/mL (≈ 148 µM) | 39.8 µg/mL (≈ 134 µM) | – | IC50 [1, 8]: 90 ng/mL (≈ 0.304 µM); pIC50 [4, 11]: 6.00
CC1(CO)OC(n2ccc(O)nc2=O)C(F)C1O (stereo not shown) [Compound 9] | DMSO-soluble | water-insoluble | 31.2 µg/mL (≈ 120 µM) | 30.1 µg/mL (≈ 115 µM) | – | IC50 [1, 8]: 162 ng/mL (≈ 0.623 µM)
